IC50 and half-life data for 1 compound are collected here from ChEMBL document CHEMBL5154702, “Synthesis and biological evaluation of aminobenzamides containing purine moiety as class I histone deacetylases inhibitors” (Bioorg Med Chem, 2022).

pIC50: −log10 of the molar value.

One data set has as its system HCT-116. Nature of the data set: Antiproliferative activity against human HCT-116 cells measured after 48 hrs by MTT assay. The data set is classed as functional, cell-based. Conditions: HCT-116, 48 h. Background: Tetrazolium dyes change colour on reduction, which living cells bring about.
For the next data set, the system named is SGC-7901. As to the kind of experiment: Antiproliferative activity against human SGC-7901 cells measured after 48 hrs by MTT assay. The class given is functional, cell-based. Conditions: SGC-7901, 48 h.
A further data set concerns MDA-MB-231. As to the kind of experiment: Antiproliferative activity against human MDA-MB-231 cells measured after 48 hrs by MTT assay. The class given is functional, cell-based. To be noted: MDA-MB-231, 48 h.
Another data set can be described thus: in vitro. Conditions: dog, liver microsomes. In general terms: Liver microsomes are a subcellular fraction often used to study metabolism.

As for `O=C(CCCCCCC(=O)Nc1ccccc1)NO` [VORINOSTAT], the negative logarithm of the IC50 (pIC50) in the data set with HCT-116 is 5.81; with SGC-7901, 5.67; in the data set with MDA-MB-231 it was 5.81. The half-life in the data set “in vitro” turned out to be 30 min.

The term pIC50 denotes the negative decadic logarithm of the IC50, by convention in mol/L. Lower therefore signals a high IC50. In general, half-life refers to how long it takes for the measured level to halve. A higher half-life goes with slow loss.
